One experiment deals with FKBP (Homo sapiens, UniProt P62942). Briefly: FKBP competitive binding assay based on fluorescence polarization (FP). Conditions: competitive FP binding. As for the experimental part:
A Competitive Binding FP Assay is described in detail in WO99/36553 and WO96/41865. That assay permits the in vitro measurement of an IC50 value for a given compound which reflects its ability to bind to an FKBP-protein in competition with a labeled FKBP ligand, such as, for example, FK506.
(§1) A diverse group of C7-modified 28-epirapalogs were prepared as described in Example 4.
Background: Polarisation of emitted light reports the rotation of a fluorescent probe.

The target of experiment [1] is T1, transcriptional switch components containing FKBP and 2098L mutant FRB domains (Homo sapiens, UniProt P42345+P62942).
T1 construct: transcriptional switchcomponents containing FKBP and 2098L mutant FRB domains, respectively; fused on or other part: The two switch components are separate chimeric proteins; Neither is given for this cell line
Briefly: transcription assay in engineered HD1080 cells expressing SEAP (txn 2098L). It counts as cell-based. Conditions: for TXN 2098L peak relative to rapamycin peak: superscript mark on EC50 cell. The text has this: The ability of the rapalogs to multimerize chimeric proteins may be measured in cell-based assays by measuring the occurrence of an event triggered by such multimerization. For instance, one may use cells containing and capable of expressing DNA encoding a first chimeric protein comprising one or more FKBP-domains and one or more effector domains as well as DNA encoding a second chimeric protein containing an FRB domain and one or more effector domains capable, upon multimerization, of actuating a biological response. We prefer to use cells which further contain a reporter gene under the transcriptional control of a regulatory element (i.e., promoter) which is responsive to the multimerization of the chimeric proteins. The design and preparation of illustrative components and their use in so engineered cells is described in WO99/36553 and WO96/41865 and the other international patent applications referred to in this and the foregoing section. (See also W099/10510 for additional guidance on the design, assembly and delivery of nucleic acids to render cells and animals responsive to rapalogs of interest and for additional guidance on applications of such systems.) The cells are grown or maintained in culture. A rapalog is added to the culture medium and after a suitable incubation period (to permit gene expression and secretion, e.g. several hours or overnight) the presence of the reporter gene product is measured. Positive results, i.e., multimerization, correlates with transcription of the reporter gene as observed by the appearance of the reporter gene product. The reporter gene product may be a conveniently detectable protein (e.g. by ELISA) or may catalyze the production of a conveniently detectable product (e.g. colored). Materials and methods for producing appropriate cell lines for conducting such assays are disclosed in the international patent applications cited above in this section.
2. EC50 values of the various compounds was measured in a transcription assay using genetically engineered HD1080 cells which constitutively express transcriptional switch components containing FKBP and 2098L mutant FRB domains, respectively and which regulatably express secreted alkaline phosphatase (SEAP) in the presence of a compound which multimerizes the switch components. The assay is a literature assay. See WO 99/36553, e.g. Example 12, pages 120–121 (& FIG. 2D) […]

In another experiment the test system is murine splenocyte. Briefly: murine splenocyte assay for immunosuppressive activity. Format: cell-based. The note with it: read-out: Splenocyte IC50. The method, then: 3. Conventional murine splenocyte assay for immunosuppressive activity.
as §1

The mark [2] stands for this setting: methods of Example 2.5, read-out: FKBP IC50.
Where [3] appears, read: cellular transcription assay, methods of Example 2.5, read-out: TXN 2098L EC50.
[4] abbreviates: mouse splenocyte assay, methods of Example 2.5.
[5] abbreviates: fluorescein-labelled FK506 probe (AP1491), read-out: FKBP binding IC50.
[6] abbreviates: HD1080 cells, FKBP and 2098L mutant FRB switch, SEAP reporter, read-out: txn 2098L EC50.
[7] abbreviates: Mus musculus, Splenocyte, murine splenocyte assay, immunosuppressive activity.

Read-outs that look alike come from different tables or passages of the source.

T1 sequence (P62942 2-108 limits assumed, stated change not applied, other chains not shown): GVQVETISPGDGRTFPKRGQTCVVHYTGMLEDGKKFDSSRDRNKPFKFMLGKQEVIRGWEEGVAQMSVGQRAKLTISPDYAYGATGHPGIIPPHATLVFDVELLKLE
Chain of FKBP (P62942 whole entry): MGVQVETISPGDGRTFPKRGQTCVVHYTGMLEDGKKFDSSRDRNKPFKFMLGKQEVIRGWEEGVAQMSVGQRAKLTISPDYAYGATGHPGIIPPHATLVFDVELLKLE

Take `COc1ccccc1COC1CC2CCC(C)C(O)(O2)C(=O)C(=O)N2CCCCC2C(=O)OC(C(C)CC2CCC(O)C(OC)C2)CC(=O)C(C)C=C(C)C(O)C(OC)C(=O)C(C)CC(C)C=CC=CC=C1C` (single isomer, unassigned) [28-epi-7S-2′-methoxybenzyloxy]: the IC50 (usually the concentration needed to halve the response being measured) was 0.033 µM at FKBP (setting [2]) and 0.025 µM in the experiment with murine splenocyte (setting [4]). Besides, the EC50 (in general, the midpoint of the concentration-response curve) in experiment [1] (setting [3]) was 0.015 µM.

For the compound `COC1CC(CC(C)C2CC(=O)C(C)C=C(C)C(O)C(OC)C(=O)C(C)CC(C)C=CC=CC=C(C)C(NC(=O)Oc3ccccc3)CC3CCC(C)C(O)(O3)C(=O)C(=O)N3CCCCC3C(=O)O2)CCC1O` (stereo not drawn) [28-epi-7R-phenylcarbamate], the figures for the IC50 on FKBP (setting [2]) and in the experiment with murine splenocyte (setting [4]) were 0.009 µM and over 5 µM, respectively. For the same compound, the EC50 in experiment [1] (setting [3]) stood at 0.01 µM. Also, the “TXN 2098L peak relative to rapamycin peak” value in experiment [1] is “(+) (peak was >125% rapamycin peak)”.

For the compound `COC1CC(CC(C)C2CC(=O)C(C)C=C(C)C(O)C(OC)C(=O)C(C)CC(C)C=CC=CC=C(C)C(c3ccc(C)s3)CC3CCC(C)C(O)(O3)C(=O)C(=O)N3CCCCC3C(=O)O2)CCC1O` (stereo not drawn) [28-epi-7S-methylthiophene], the half-maximal inhibitory concentration (IC50) on FKBP (setting [2]) is 0.086 µM; in the experiment with murine splenocyte (setting [4]), 0.17 to 0.242 µM. Also, the EC50 in experiment [1] (setting [3]) worked out at 0.025 µM.

In the case of `COCO[C@@H]1CC[C@@H](C[C@@H](C)[C@@H]2CC(=O)[C@H](C)/C=C(\C)[C@H](O)[C@@H](OC)C(=O)[C@H](C)C[C@H](C)/C=C/C=C/C=C(\C)[C@@H](OC)C[C@@H]3CC[C@@H](C)[C@@](O)(O3)C(=O)C(=O)N3CCCC[C@H]3C(=O)O2)C[C@H]1OC` [43-O-MOM-28-epirapamycin], the half-maximal inhibitory concentration (IC50) on FKBP (setting [5]) is 0.027 µM; with murine splenocyte (setting [7]), 0.0006 to 0.0016 µM. The EC50 in experiment [1] (setting [6]) turned out to be 0.007 µM.

In the case of 28-epi-7R-(3′-methyl)-but-4′-enyloxy, the IC50 was 0.013 µM at FKBP (setting [2]) and 3.16 µM with murine splenocyte (setting [4]). Also, the EC50 in experiment [1] (setting [3]) was found to be 0.035 µM.

Take `CO[C@H]1C[C@@H]2CC[C@@H](C)[C@@](O)(O2)C(=O)C(=O)N2CCCC[C@H]2C(=O)O[C@H]([C@H](C)C[C@@H]2CC[C@@H](OC)[C@H](OC)C2)CC(=O)[C@H](C)/C=C(\C)[C@H](O)[C@@H](OC)C(=O)[C@H](C)C[C@H](C)/C=C/C=C/C=C/1C` [43-O-methyl-28-epirapamycin]: the IC50 at FKBP (setting [5]) was 0.034 µM; in the experiment on murine splenocyte (setting [7]), 0.02 to 0.031 µM. Further, the EC50 in experiment [1] (setting [6]) came to 0.003 µM.

With `CO[C@@H]1C[C@H](C[C@@H](C)[C@@H]2CC(=O)[C@H](C)/C=C(\C)[C@H](O)[C@@H](OC)C(=O)[C@H](C)C[C@H](C)/C=C/C=C/C=C(\C)[C@@H](N(C)C(=O)Oc3ccc(C)cc3)C[C@@H]3CC[C@@H](C)[C@@](O)(O3)C(=O)C(=O)N3CCCC[C@H]3C(=O)O2)CC[C@H]1O` [28-epi-7S-N-Me-p-tolylcarbamate], the IC50 came to 0.054 µM at FKBP (setting [2]) and 0.05 µM with murine splenocyte (setting [4]). Besides, in experiment [1] (setting [3]), the EC50 was 0.025 µM.

Turning to `CCOC(=O)N(C)C1CC2CCC(C)C(O)(O2)C(=O)C(=O)N2CCCCC2C(=O)OC(C(C)CC2CCC(O)C(OC)C2)CC(=O)C(C)C=C(C)C(O)C(OC)C(=O)C(C)CC(C)C=CC=CC=C1C` (single isomer, unassigned) [28-epi-7R-N-methyl-ethylcarbamate], the 50% inhibitory concentration (IC50) on FKBP (setting [2]) was 0.12 µM; in the experiment with murine splenocyte (setting [4]) it was 0.255 µM. For the same compound, the EC50 in experiment [1] (setting [3]) came out at 0.009 µM.

With `COC1CC(CC(C)C2CC(=O)C(C)C=C(C)C(O)C(OC)C(=O)C(C)CC(C)C=CC=CC=C(C)C(N(C)C(=O)OCC(C)C)CC3CCC(C)C(O)(O3)C(=O)C(=O)N3CCCCC3C(=O)O2)CCC1O` (single isomer, unassigned) [28-epi-7R-N-Me-isobutylcarbamate], the results for the IC50 at FKBP (setting [2]) and in the experiment with murine splenocyte (setting [4]) were 0.109 µM and 0.587 µM, respectively. In addition, the 50% effective concentration (EC50) in experiment [1] (setting [3]) is 0.015 µM.

For `COC1CC(CC(C)C2CC(=O)C(C)C=C(C)C(O)C(OC)C(=O)C(C)CC(C)C=CC=CC=C(C)C(NC(=O)OCc3ccccc3)CC3CCC(C)C(O)(O3)C(=O)C(=O)N3CCCCC3C(=O)O2)CCC1O` (stereo not drawn) [28-epi-7R-benzylcarbamate], the figures for the half-maximal inhibitory concentration (IC50) on FKBP (setting [2]) and in the experiment with murine splenocyte (setting [4]) were 0.012 µM and 2.26 µM, respectively. In addition, the EC50 in experiment [1] (setting [3]) turned out to be 0.009 µM. Further, in experiment [1], the “TXN 2098L peak relative to rapamycin peak” value is “(+) (peak was >125% rapamycin peak)”.
